Data reported in patent US10717740B2, “Solid forms of acalabrutinib and process for preparation thereof” (DR. REDDY'S LABORATORIES LIMITED, priority 2017, dated 2020).

Assay: Solid-state storage stability of the crystalline form
Assay type: physicochemical

Measured: stability of crystalline form on storage

CC#CC(=O)N1CCC[C@H]1c1nc(-c2ccc(C(=O)Nc3ccccn3)cc2)c2c(N)nccn12 [form RSV3, acalabrutinib]
stable: 3 months at 2-8° C. | 3 months at 25° C./60% RH | 3 months at 40° C./75% RH
